# Results: PMC6210072 (ACS Omega, 2018)
# Tests used:
# PARP2 = PARP2 (Homo sapiens, UniProt Q9UGN5); format: biochemical
# ROCK2 = ROCK2 (Homo sapiens, UniProt O75116); format: biochemical; conditions: read-out: ROCK2
# Chain of ROCK2 (O75116 whole entry): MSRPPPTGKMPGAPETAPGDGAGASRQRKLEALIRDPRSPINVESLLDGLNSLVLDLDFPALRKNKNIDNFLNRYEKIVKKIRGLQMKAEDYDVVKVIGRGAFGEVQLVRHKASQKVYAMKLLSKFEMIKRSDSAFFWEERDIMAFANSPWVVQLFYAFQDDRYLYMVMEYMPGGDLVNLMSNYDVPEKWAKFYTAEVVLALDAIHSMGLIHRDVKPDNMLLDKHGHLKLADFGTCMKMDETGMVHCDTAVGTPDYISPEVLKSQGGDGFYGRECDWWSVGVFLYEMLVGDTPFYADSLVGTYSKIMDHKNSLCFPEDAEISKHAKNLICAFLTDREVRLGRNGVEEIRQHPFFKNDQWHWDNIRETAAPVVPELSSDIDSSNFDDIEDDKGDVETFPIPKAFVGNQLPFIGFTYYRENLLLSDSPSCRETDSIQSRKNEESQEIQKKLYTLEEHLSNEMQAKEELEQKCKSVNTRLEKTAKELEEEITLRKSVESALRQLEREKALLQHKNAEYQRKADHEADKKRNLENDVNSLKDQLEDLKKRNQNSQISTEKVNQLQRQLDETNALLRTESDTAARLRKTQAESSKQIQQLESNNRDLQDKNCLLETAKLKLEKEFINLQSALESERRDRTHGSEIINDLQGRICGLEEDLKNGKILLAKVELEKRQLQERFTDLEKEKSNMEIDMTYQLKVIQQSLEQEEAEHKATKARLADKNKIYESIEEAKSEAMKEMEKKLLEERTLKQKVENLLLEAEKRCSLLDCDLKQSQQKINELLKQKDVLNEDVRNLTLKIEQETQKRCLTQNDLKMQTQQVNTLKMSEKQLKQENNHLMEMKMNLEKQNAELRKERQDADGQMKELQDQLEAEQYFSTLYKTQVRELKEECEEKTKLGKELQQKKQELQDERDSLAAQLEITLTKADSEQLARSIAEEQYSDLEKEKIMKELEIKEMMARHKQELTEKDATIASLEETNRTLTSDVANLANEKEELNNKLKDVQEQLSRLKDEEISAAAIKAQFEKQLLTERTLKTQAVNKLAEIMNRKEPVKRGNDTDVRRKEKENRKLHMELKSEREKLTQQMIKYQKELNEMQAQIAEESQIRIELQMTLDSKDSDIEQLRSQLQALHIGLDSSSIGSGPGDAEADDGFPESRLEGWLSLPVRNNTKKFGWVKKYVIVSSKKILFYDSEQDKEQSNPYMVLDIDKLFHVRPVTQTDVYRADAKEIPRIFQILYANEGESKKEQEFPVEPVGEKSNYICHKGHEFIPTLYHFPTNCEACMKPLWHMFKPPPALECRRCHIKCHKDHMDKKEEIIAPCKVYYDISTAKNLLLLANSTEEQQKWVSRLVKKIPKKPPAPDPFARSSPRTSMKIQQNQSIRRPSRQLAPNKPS
# Chain of PARP2 (Q9UGN5 whole entry): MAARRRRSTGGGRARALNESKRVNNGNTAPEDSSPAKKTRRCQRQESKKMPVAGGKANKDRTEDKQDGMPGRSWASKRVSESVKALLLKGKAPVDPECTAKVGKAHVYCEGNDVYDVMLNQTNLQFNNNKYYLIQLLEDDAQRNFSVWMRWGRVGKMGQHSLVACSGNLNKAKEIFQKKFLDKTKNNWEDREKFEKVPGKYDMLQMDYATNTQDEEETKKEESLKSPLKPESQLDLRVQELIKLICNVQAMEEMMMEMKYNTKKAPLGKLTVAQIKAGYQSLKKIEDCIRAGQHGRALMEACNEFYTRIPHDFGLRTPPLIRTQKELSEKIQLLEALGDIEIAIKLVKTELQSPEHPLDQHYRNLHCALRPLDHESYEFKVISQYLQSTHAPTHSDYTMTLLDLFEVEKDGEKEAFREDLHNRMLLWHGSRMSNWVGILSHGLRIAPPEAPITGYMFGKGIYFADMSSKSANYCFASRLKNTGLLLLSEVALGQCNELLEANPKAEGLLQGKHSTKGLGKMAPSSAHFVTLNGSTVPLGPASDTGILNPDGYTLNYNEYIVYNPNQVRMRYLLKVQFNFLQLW
IC50 (PARP2),inhibition at 10 µM (ROCK2),SMILES
35.1 µM,–,"O=S(=O)(c1cccc2c(O)nccc12)N1CCCNCC1 [compound 4, hydroxyfasudil]"
–,20.5 ± 0.4%,"O=C(COc1cccc2c(=O)[nH]ccc12)c1ccccc1 [compound 6, UPF 1069]"
